Source: PubChem BioAssay (NCI)
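These data come from cells grown in 96-well plates and exposed to compound for 48 hours at five concentrations. TGI is the concentration that stops growth completely.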

Assays:
Experiment in all cases: NCI tumour cell line growth inhibition, 48 h
UACC-257 melanoma = tested on: UACC-257 melanoma
SF-268 CNS = tested on: SF-268 CNS
NCI-H522 lung = tested on: NCI-H522 lung
SK-MEL-2 melanoma = tested on: SK-MEL-2 melanoma
BT-549 breast = tested on: BT-549 breast
SK-OV-3 ovarian = tested on: SK-OV-3 ovarian
U251 CNS = tested on: U251 CNS
OVCAR-3 ovarian = tested on: OVCAR-3 ovarian
MALME-3M melanoma = tested on: MALME-3M melanoma
UO-31 renal = tested on: UO-31 renal
HCC-2998 colon = tested on: HCC-2998 colon
DU-145 prostate = tested on: DU-145 prostate
ACHN renal = tested on: ACHN renal
RXF 393 renal = tested on: RXF 393 renal
MCF7 breast = tested on: MCF7 breast
OVCAR-8 ovarian = tested on: OVCAR-8 ovarian
OVCAR-4 ovarian = tested on: OVCAR-4 ovarian
SR leukemia = tested on: SR leukemia
MDA-MB-435 = tested on: MDA-MB-435
HOP-92 NSCLC = tested on: HOP-92 NSCLC
EKVX NSCLC = tested on: EKVX NSCLC
IGROV1 ovarian = tested on: IGROV1 ovarian
TK-10 renal = tested on: TK-10 renal
RPMI-8226 leukemia = tested on: RPMI-8226 leukemia
SW-620 colon = tested on: SW-620 colon
CCRF-CEM leukemia = tested on: CCRF-CEM leukemia
SNB-75 CNS = tested on: SNB-75 CNS
HOP-62 NSCLC = tested on: HOP-62 NSCLC
SF-295 CNS = tested on: SF-295 CNS
M14 melanoma = tested on: M14 melanoma
A549 NSCLC = tested on: A549 NSCLC
786-0 renal = tested on: 786-0 renal
PC-3 prostate = tested on: PC-3 prostate
LOX IMVI melanoma = tested on: LOX IMVI melanoma
UACC-62 melanoma = tested on: UACC-62 melanoma
NCI-H460 lung = tested on: NCI-H460 lung
HL-60(TB) leukemia = tested on: HL-60(TB) leukemia
SK-MEL-5 melanoma = tested on: SK-MEL-5 melanoma
NCI-H226 lung = tested on: NCI-H226 lung
NCI/ADR-RES ovarian = tested on: NCI/ADR-RES ovarian
OVCAR-5 ovarian = tested on: OVCAR-5 ovarian
A498 renal = tested on: A498 renal
MDA-N = tested on: MDA-N
HT29 colon = tested on: HT29 colon
K-562 leukemia = tested on: K-562 leukemia
SF-539 CNS = tested on: SF-539 CNS
MDA-MB-231 breast = tested on: MDA-MB-231 breast
KM12 colon = tested on: KM12 colon
HCT-15 colon = tested on: HCT-15 colon
HCT-116 colon = tested on: HCT-116 colon
SN12C renal = tested on: SN12C renal
HS 578T breast = tested on: HS 578T breast
SNB-19 CNS = tested on: SNB-19 CNS
CAKI-1 renal = tested on: CAKI-1 renal
SK-MEL-28 melanoma = tested on: SK-MEL-28 melanoma
NCI-H23 lung = tested on: NCI-H23 lung
COLO 205 colon = tested on: COLO 205 colon
T-47D breast = tested on: T-47D breast

Measured: TGI

Cn1c(=O)c2[nH]c(CCC(=O)O)nc2n(C)c1=O
> 100 µM: UACC-257 melanoma | SF-268 CNS | NCI-H522 lung | SK-MEL-2 melanoma | BT-549 breast | SK-OV-3 ovarian | U251 CNS | OVCAR-3 ovarian | MALME-3M melanoma | UO-31 renal | HCC-2998 colon | DU-145 prostate | ACHN renal | RXF 393 renal | MCF7 breast | OVCAR-8 ovarian | OVCAR-4 ovarian | SR leukemia | MDA-MB-435 | HOP-92 NSCLC | EKVX NSCLC | IGROV1 ovarian | TK-10 renal | RPMI-8226 leukemia | SW-620 colon | CCRF-CEM leukemia | SNB-75 CNS | HOP-62 NSCLC | SF-295 CNS | M14 melanoma | A549 NSCLC | 786-0 renal | PC-3 prostate | LOX IMVI melanoma | UACC-62 melanoma | NCI-H460 lung | HL-60(TB) leukemia | SK-MEL-5 melanoma | NCI-H226 lung | NCI/ADR-RES ovarian | OVCAR-5 ovarian | A498 renal | MDA-N | HT29 colon | K-562 leukemia | SF-539 CNS | MDA-MB-231 breast | KM12 colon | HCT-15 colon | HCT-116 colon | SN12C renal | HS 578T breast | SNB-19 CNS | CAKI-1 renal | SK-MEL-28 melanoma | NCI-H23 lung | COLO 205 colon | T-47D breast
